Measured values as given in ChEMBL document CHEMBL4014311, “Discovery of a Hepatitis C Virus NS5B Replicase Palm Site Allosteric Inhibitor (BMS-929075) Advanced to Phase 1 Clinical Studies” (J Med Chem, 2017).
pEC50, pIC50: −log10 of the molar value. Active and inactive are the calls of the source. The calls are words filed in the database; no cut-off is given here.

Columns and labels:
[1] = Inhibition of HCV genotype 1b NS5B replicase C316N mutant infected in human HuH7 cells assessed as reduction of viral replication after 3 days by luciferase reporter assay; type: cell-based, Hepatitis C virus subtype 1b; details: Hepatitis C virus, Huh-7, 72 h
[2] = Metabolic stability in rat liver microsomes assessed as parent compound remaining after 10 mins; type: ADME, microsome; details: read-out: Stability
Hepatitis C virus [3] = assay: Antiviral activity against HCV genotype 1a infected in human HuH7 cells after 3 days by luciferase reporter assay; type: functional, cell-based, Hepacivirus hominis, subtype 1a; details: for pEC50: Hepatitis C virus, subtype 1a, Huh-7, 72 h, read-out: EC50
Cytochrome P450 2C8 = target: T1, Cytochrome P450 2C8 (Homo sapiens, UniProt P10632); assay: Inhibition of microsomal CYP2C8 (unknown origin); type: ADME
T1 sequence (P10632 whole entry): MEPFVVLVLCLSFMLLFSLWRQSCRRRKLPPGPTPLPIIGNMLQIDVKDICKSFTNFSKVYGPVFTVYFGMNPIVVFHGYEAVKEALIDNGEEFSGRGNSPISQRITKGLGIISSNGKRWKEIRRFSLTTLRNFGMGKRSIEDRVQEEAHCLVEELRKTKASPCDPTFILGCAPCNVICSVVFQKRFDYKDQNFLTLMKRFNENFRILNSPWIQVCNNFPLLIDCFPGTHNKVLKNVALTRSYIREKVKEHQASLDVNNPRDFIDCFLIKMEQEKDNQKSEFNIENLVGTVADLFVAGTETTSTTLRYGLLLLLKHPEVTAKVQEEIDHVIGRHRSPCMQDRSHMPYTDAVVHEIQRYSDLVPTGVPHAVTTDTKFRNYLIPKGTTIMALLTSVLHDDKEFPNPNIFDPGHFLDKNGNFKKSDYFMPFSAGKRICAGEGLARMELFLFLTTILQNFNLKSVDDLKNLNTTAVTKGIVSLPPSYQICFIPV

Hepatitis C virus [4] = assay: Antiviral activity against HCV genotype 1b infected in human HuH7 cells after 3 days by luciferase reporter assay; type: functional, cell-based, Hepacivirus hominis; details: for pEC50: Hepatitis C virus, genotype 1b, Huh-7, 72 h, read-out: EC50
Cytochrome P450 3A4 = Cytochrome P450 3A4 (Homo sapiens, UniProt P08684); assay: Inhibition of microsomal CYP3A4 (unknown origin); type: ADME
[5] = Metabolic stability in human liver microsomes assessed as parent compound remaining after 10 mins; type: ADME, microsome; details: read-out: Stability
[6] = Inhibition of HCV genotype 1b NS5B replicase expressed in Escherichia coli BL21(DE3) using polyA/biotinylated oligo(dT12) as template/primer in presence of [3H]UTP after 60 mins by SPA assay; parameters: species or system Hepatitis C virus subtype 1b
Hepatitis C virus [7] = assay: Antiviral activity against HCV genotype 1b infected in human HuH7 cells at >= 10 times antiviral EC50 after 3 days by luciferase reporter assay; type: functional, cell-based; details: Hepacivirus hominis
Hepatitis C virus [8] = assay: Antiviral activity against HCV genotype 1b infected in human HuH7 cells co-treated with daclatasvir after 3 days by luciferase reporter assay; type: functional, cell-based; details: Hepacivirus hominis
[9] = Half life in rat liver microsomes; type: ADME, microsome
[10] = Half life in monkey liver microsomes; type: ADME, Macaca mulatta, microsome; details: rhesus monkey
[11] = Half life in human liver microsomes; type: ADME, microsome
[12] = Cytotoxicity against human HuH7 cells after 3 days by CellTiter-Blue assay; type: cell-based, Huh-7

Sequence of Cytochrome P450 3A4 (P08684 whole entry): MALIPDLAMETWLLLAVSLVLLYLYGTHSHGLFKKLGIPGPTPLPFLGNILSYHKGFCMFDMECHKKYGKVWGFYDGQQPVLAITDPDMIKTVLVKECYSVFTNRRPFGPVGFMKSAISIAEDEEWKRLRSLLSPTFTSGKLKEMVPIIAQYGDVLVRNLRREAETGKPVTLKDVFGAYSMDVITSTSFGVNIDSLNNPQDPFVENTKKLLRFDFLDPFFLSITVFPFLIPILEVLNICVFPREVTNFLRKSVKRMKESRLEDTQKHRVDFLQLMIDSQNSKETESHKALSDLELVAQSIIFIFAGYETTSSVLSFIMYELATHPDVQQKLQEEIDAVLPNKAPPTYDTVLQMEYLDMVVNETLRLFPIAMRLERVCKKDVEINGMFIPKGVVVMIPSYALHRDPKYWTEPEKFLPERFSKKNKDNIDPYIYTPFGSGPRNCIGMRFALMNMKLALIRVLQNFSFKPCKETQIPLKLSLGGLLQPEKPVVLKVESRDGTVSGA

Row | pEC50 (Hepatitis C virus [3]) | pEC50 (Hepatitis C virus [4]) | pIC50 [6] | SMILES | pEC50 [1] | also measured
1 | 5.74 | 7.17 | 7.04 | CNC(=O)c1c(-c2ccc(F)cc2)oc2ccc(-c3cccc(C(=O)NCc4ccccc4)c3)cc12 |  | 
2 | < 4.70 | 5.35 | 6.19 | CNC(=O)c1c(-c2ccc(F)cc2)oc2ccc(-c3ccc(C(=O)O)cc3)cc12 |  | 
3 | < 4.70 | 4.92 | 5.96 | CNC(=O)c1c(-c2ccc(F)cc2)oc2ccc(-c3cccc(C(=O)O)c3)cc12 |  | 
4 | 6.80 | 8.00 | 8.10 | CNC(=O)c1c(-c2ccc(F)cc2)oc2ccc(-c3cccc(C(=O)NC(C)(C)c4ccccc4)c3)cc12 |  | 
5 | 6.20 | 7.01 | 6.72 | CNC(=O)c1c(-c2ccc(F)cc2)oc2ccc(-c3cccc(C(=O)NC(C)C)c3)cc12 |  | 
6 |  | < 5.43 | 5.24 | CNC(=O)c1c(-c2ccc(F)cc2)oc2ccc(-c3cccc(C(N)=O)c3)cc12 |  | 
7 | 6.22 | 7.27 | 7.59 | CNC(=O)c1c(-c2ccc(F)cc2)oc2ccc(-c3cccc(C(=O)NC(C)c4ccccc4)c3)cc12 (configuration not stated) |  | 
8 | 7.44 | 8.44 | 8.23 | CNC(=O)c1c(-c2ccc(F)cc2)oc2ccc(-c3cccc(C(=O)NC4(c5ccccc5)CC4)c3)cc12 |  | 
9 |  |  | < 4.30 | CNC(=O)c1c(-c2ccc(F)cc2)oc2ccc(-c3cccc(CO)c3)cc12 |  | 
10 | 5.85 | 7.12 | 6.92 | CNC(=O)c1c(-c2ccc(F)cc2)oc2ccc(-c3cccc(C(=O)N(C)C(C)(C)C)c3)cc12 |  | 
11 |  |  | < 4.30 | CNC(=O)c1c(-c2ccc(F)cc2)oc2ccc(-c3cccc(C(=O)OC)c3)cc12 |  | 
12 | 6.62 | 7.74 | 7.39 | CNC(=O)c1c(-c2ccc(F)cc2)oc2ccc(-c3cccc(C(=O)NC(C)(C)C)c3)cc12 |  | 
13 |  |  | < 4.30 | CNC(=O)c1c(-c2ccc(F)cc2)oc2ccc(-c3ccccc3C(=O)O)cc12 |  | 
14 |  | 6.01 | 5.44 | CNC(=O)c1c(-c2ccc(F)cc2)oc2ccc(-c3ccc(C(=O)NC(C)(C)C)cc3)cc12 |  | 
15 | 6.00 | 6.48 | 6.11 | CCNC(=O)c1cccc(-c2ccc3oc(-c4ccc(F)cc4)c(C(=O)NC)c3c2)c1 |  | 

The next lines start with the molecule.

Row | SMILES | pEC50 (Hepatitis C virus [3]) | pEC50 (Hepatitis C virus [4]) | pIC50 [6] | pEC50 [1] | also measured
16 | CNC(=O)c1c(-c2ccc(F)cc2)oc2ccc(-c3cc(C(=O)NC4(c5cccnc5)CC4)ccc3C)cc12 | 7.77 | 8.66 |  | 6.71 | remaining at 10 min [2]: 0.6%; pIC50 (Cytochrome P450 2C8): 6.46; pIC50 (Cytochrome P450 3A4): 7.20; remaining at 10 min [5]: 0.7%
17 | CNC(=O)c1c(-c2ccc(F)cc2)oc2ccc(-c3ccc(C(=O)O)s3)cc12 |  |  | 6.44 |  | 
18 | O=C(Nc1c(OCc2ccc(Cl)cc2)cccc1C(=O)O)c1ccccc1 |  |  | 5.08 |  | EC50 (Hepatitis C virus [3]): Not Active; EC50 (Hepatitis C virus [4]): Not Active
19 | C=C[C@@H]1C[C@]1(NC(=O)[C@@H]1C[C@@H](Oc2ncc(OC)c3ccc(Cl)cc23)CN1C(=O)[C@@H](NC(=O)OC(C)(C)C)C(C)(C)C)C(=O)NS(=O)(=O)C1CC1 |  |  |  |  | Activity (Hepatitis C virus [7]): Active; Activity (Hepatitis C virus [8]): Active
20 | CNC(=O)c1c(-c2ccc(F)cc2)oc2ccc(-c3cc(C(=O)NC4(c5cnccn5)CC4)ccc3C)cc12 | 7.82 | 8.59 |  | 6.51 | 
21 | CNC(=O)c1c(-c2ccc(F)cc2)oc2ccc(-c3cc(C(=O)NC4(c5ccccc5)CC4)ccc3F)cc12 | 7.80 | 8.44 |  | 6.82 | 
22 | CNC(=O)c1c(-c2ccc(F)cc2)oc2ccc(-c3cc(C(=O)NC4(c5ccccc5)CC4)ccc3OC)cc12 | 8.10 | 8.74 |  | 7.49 | 
23 | CNC(=O)c1c(-c2ccc(F)cc2)oc2ccc(-c3cc(C(=O)NC4(c5nc(C)no5)CC4)ccc3C)cc12 | 8.92 | 9.09 |  | 7.34 | half-life [9]: 10 min; half-life [10]: 25 min
24 | CNC(=O)c1c(-c2ccc(F)cc2)oc2ccc(-c3cc(C(=O)NC4(c5cccnn5)CC4)ccc3C)cc12 | 7.77 | 8.54 |  | 6.86 | 
25 | CNC(=O)c1c(-c2ccc(F)cc2)oc2ccc(OC(C)C)cc12 | < 4.96 | 4.85 | 4.68 |  | 
26 | CNC(=O)c1c(-c2ccc(F)cc2)oc2ccc(-c3cc(C(=O)NC4(c5ccncn5)CC4)ccc3C)cc12 | 7.89 | 8.72 |  | 6.96 | 
27 | CNC(=O)c1c(-c2ccc(F)cc2)oc2ccc(-c3cc(C(=O)NC4(c5ccncc5)CC4)ccc3C)cc12 | 8.08 | 9.08 |  | 7.20 | remaining at 10 min [2]: 11%; pIC50 (Cytochrome P450 2C8): 7.59; pIC50 (Cytochrome P450 3A4): 7.14; remaining at 10 min [5]: 11%
28 | CNC(=O)c1c(-c2ccc(F)cc2)oc2ccc(-c3cc(C(=O)NC4(c5ccccc5)CC4)ccc3Cl)cc12 | 8.21 | 8.60 |  | 7.20 | 
29 | CNC(=O)c1c(-c2ccc(F)cc2)oc2ccc(-c3cc(C(=O)NC4(c5ccccc5)CC4)ccc3C)cc12 | 8.68 | 8.89 |  | 7.46 | half-life [11]: 11 min; remaining at 10 min [2]: 39%; pIC50 (Cytochrome P450 2C8): 5.82; CC50 at 72 h [12]: > 25000 nM; pIC50 (Cytochrome P450 3A4): 5.68; remaining at 10 min [5]: 68%
